Data reported in patent US12409172B2, “Dosage regimen” (UNION therapeutics A/S, priority 2023, dated 2025).

Experiments:
[1] = system: adults with moderate to severe atopic dermatitis; assay: Phase 2b dose-ranging study in atopic dermatitis (Example 8): efficacy (EASI, IGA-AD, PGIC); format: in vivo, human; details: for patients achieving IGA0/1 responses at week 16: MI
Experimental: A 16-week, phase 2b, double-blinded, placebo-controlled, dose-finding study assessing efficacy and safety of orismilast modified-release (MR) tablets in adults with moderate-to-severe atopic dermatitis was carried out (NCT05469464). Patients were randomized (1:1:1:1) to orismilast 20, 30, 40 mg or placebo, twice daily. Randomized and dosed patients were included in the Intent-to-Treat Population (used for efficacy and safety). Missing data was handled using Multiple Imputation (MI) for the analysis of primary and secondary efficacy endpoints.
The exploratory objectives are to: • Evaluate pharmacokinetic (PK) and pharmacodynamic parameters relevant to AD • Evaluate the effect of orismilast on the pulmonary status and course of the disease in patients with asthma Primary Endpoint • Percentage change in Eczema Area and Severity Index (EASI) score from Baseline at Week 16. […]

[2] = system: pruritus (itch) associated with atopic dermatitis; assay: Phase 2b study in atopic dermatitis (Examples 8, 9): ≥4-point improvement in peak pruritus NRS (PPNRS); format: in vivo, human
Experimental: The severity of itch (pruritus) due to AD will be assessed using a horizontal 11-point NRS. Patients will be asked to assess their “worst itching due to AD over the past 24 hours” on an NRS anchored by the terms “no itching” (0) and “worst possible itching” (10). The item will be completed at each visit via an application on an electronic device in the clinic or the patient's own electronic device from baseline through Week 20.
The binary secondary efficacy endpoint, 4-point improvement in the peak pruritis numerical rating scale (“responders”), was analysed using the Mantel-Haenszel (MH) test and Fisher's exact tests, comparing the proportions of PPNRS responders in each active treatment group with placebo (intent-to-treat (ITT) population).
The ITT population included all randomized subjects who received at least 1 dose of orismilast. The treatment group assignment was designated according to initial randomization. The ITT population served as the basis for the analysis of efficacy.
PPNRS assesses the severity of itch (pruritus) due to atopic dermatitis using a horizontal 11-point NRS. […]
In FIG. 34, “Observed” or “Obs” refers to all subjects in the ITT Population with a recorded PPNRS score, i.e. if the PPNRS score is missing the value was not imputed. […]

[3] = system: TNF-α secretion from human whole blood; assay: LPS and SEB-induced TNF-α secretion from human whole blood; format: cell-based; details: average; both LPS and SEB-induced TNF-α secretion from human whole blood
[4] = system: TNF-α secretion from human whole blood; details: in vitro; cited from earlier work
[5] = system: human peripheral blood mononuclear cells PBMC; details: in vitro; cited from earlier work

Compound: O=C(Cc1c(Cl)c[n+]([O-])cc1Cl)c1ccc(OC(F)F)c2c1OC1(CCS(=O)(=O)CC1)O2 [orismilast, 2-(3,5-dichloro-1-oxidopyridin-1-ium-4-yl)-1-[7-(difluoromethoxy)-1′,1′-dioxospiro[1,3-benzodioxole-2,4′-thiane]-4-yl]ethanone]
- patients achieving IGA0/1 responses at week 16 ([1]; 20 mg BID (n=58)): 26.3%
- patients achieving IGA0/1 responses at week 16 ([1]; 30 mg BID (n=61)): 24.3%
- mean percentage change in EASI at week 16 ([1]; 30 mg BID, p>0,05): −52.2%
- patients achieving IGA0/1 responses at week 16 ([1]; 40 mg BID (n=59)): 30.9%
- Patient Global Impression of Change of "much improved" or "very much improved" compared to placebo at week 16 ([1]; active arms (20, 30, 40 mg BID)): improved significantly
- ≥4-point reduction in itch NRS / PPNRS at week 2 compared to placebo ([2]; all active arms (20, 30, 40 mg BID), MI p<0.05): significant
- ≥4 point reduction in PPNRS at week 16 compared to placebo ([2]; all active arms, subjects having severe itch (PPNRS>7) at baseline, Observed p<0.05 or p<0.1): statistically significant improvement
- potency relative to apremilast on a molar basis [3]: 23 times
- production of tumour necrosis factor α (TNFα) in human whole blood and PBMC [4]: inhibited
- secretion of Th1 (TNFα and IFNγ), Th17 (IL-22 and IL-23) and Th2 (IL-4, IL-5, and IL-13) related cytokines in PBMC [5]: inhibited
